{"source": "patent US20180185374A1", "about": "“INHIBITORS OF MTOR KINASE AS ANTI-VIRAL AGENTS” (THE TRUSTEES OF PRINCETON UNIVERSITY, priority 2009, published 2018)", "key": {"HCMV [1]": {"test_system": "HCMV", "assay": "HCMV DNA accumulation by qPCR", "type": "cell-based, human cytomegalovirus", "details": "96 hpi; Torin1 250 nM; 0.05 PFU/cell", "procedure": "FIG. 3. […] (A) Rapamycin-resistant mTOR activity is required for the accumulation of an some but not all HCMV proteins. […] Cells were harvested at the indicated times, and the accumulation of the indicated proteins was analyzed by Western blotting. […] At the indicated times DNA was isolated, and viral DNA was quantified by qPCR. Equivalent amounts of DNA were analyzed for each sample, and the results are normalized to the level of actin DNA per sample. […] At the indicated times the amount of UL99 RNA was determined by qPCR, and the results are normalized to the amount of actin RNA in each sample.\n(§1) Determination of viral DNA and transcript accumulation in infected cells. The accumulation of viral DNA during HCMV infection was monitored by quantitative PCR (qPCR) as described previously (Terhune, et al. (2007) J. Virol. 81:3109-3123).\n(§2) Briefly, primary human fibroblasts were infected with BADinGFP at a multiplicity of 0.05 PFU/cell. At the indicated times, cells were harvested by scraping them into medium and were stored as frozen cell pellets until analysis. Cell pellets were resuspended in 500 μl of a solution containing 400 mM NaCl, 10 mM Tris (pH 7.5), and 10 mM EDTA. […] For each sample, DNA was quantified by using a NanoDrop spectrophotometer (Thermo Scientific). […]\nViral DNA accumulation was measured by quantitative real-time PCR of fibroblasts treated with rapamycin or Torin1. […]"}, "4EBP1": {"test_system": "4EBP1", "assay": "4EBP1 phosphorylation in MCMV-infected MEFs, Western blot", "type": "cell-based, mouse", "details": "Torin1 250 nM", "procedure": "(§3) FIG. 5. […] Fresh serum-free medium containing drugs was added every other day. At the indicated times, cell-free supernatants were harvested, and the amount of virus in the supernatant was quantified by the TCID50 method. Error bars represent the standard errors of the means form two independent experiments performed in duplicate. […] At 48 hpi the phosphorylation state of the indicated mTORC1 targets was analyzed by a Western blot assay by using antibodies to phosphorylated targets (4EBP1-PT^37/46 and rpS6-PS^235/6) and total proteins. The results are representative of three independent experiments.\nFIG. 6. mTORC2 and its target, Akt, are not the source of rapamycin-resistant mTOR activity. […] At 6 days post infection the amount of MCMV in cell-free supernatants was determined by the TCID50 method. […] At 48 hpi, the phosphorylation state of mTORC1 targets was assessed by Western blotting using antibodies specific for the indicated proteins. (C) Confirmation of the genotype of Rictor-null MEFs. Total DNA was isolated from wild-type and Rictor-null MEFs, and the genotype was confirmed by use of PCR. (D) Same as above (A) except that Akt1- and Akt2-null MEFs were used. (E) Same as above (B) except that Akt1- and Akt2-null MEFs were used. For B and E, the error bars represent the standard errors of the means from at least two independent experiments, each performed in duplicate. For […], tubulin was assayed as a loading control. […] Protein from wild-type or mutant MEFs was analyzed by Western blotting by use of an antibody specific for Akt.\nThe identification of the functional roles of proteins in the mTOR signaling pathway has been facilitated by the generation of knockout mouse strains lacking individual mTOR components. […] Also as observed for HCMV (FIG. 4A), MCMV infection induced mTORC1 activity, as measured by the increased phosphorylation of rpS6. […]\nWe first investigated the requirement for mTORC2 for the replication of MCMV. […] Finally, that 4EBP1 was not detected in lysates of these cells by Western blot assay confirmed the phenotype of the MEFs."}, "rpS6": {"test_system": "rpS6", "assay": "rpS6 phosphorylation in MCMV-infected MEFs, Western blot", "type": "cell-based, mouse", "details": "48 hpi; rapamycin 20 nM, Torin1 250 nM, LY294002 20 μM", "procedure": "as §3\nThe identification of the functional roles of proteins in the mTOR signaling pathway has been facilitated by the generation of knockout mouse strains lacking individual mTOR components. For example, the availability of murine embryonic fibroblasts (MEFs) lacking the essential mTORC2 component Rictor led to the definitive identification of mTORC2 as the kinase complex responsible for the complete activation of Akt. We used murine cytomegalovirus (MCMV) and several MEF lines deficient for mTOR signaling pathway components to test for a possible contribution of mTORC2 to rapamycin-resistant phosphorylation events. […] Also as observed for HCMV (FIG. 4A), MCMV infection induced mTORC1 activity, as measured by the increased phosphorylation of rpS6. […]"}, "HCMV [2]": {"test_system": "HCMV", "assay": "HCMV entry: cell-associated viral DNA at 2 hpi by real-time PCR", "type": "cell-based, human cytomegalovirus", "details": "250 nM, 24 h pretreatment or after adsorption, 3 PFU/cell", "procedure": "FIG. 2. […] Serum-starved confluent fibroblasts were infected with HCMV at a multiplicity of 3 PFU/cell. […] Control cultures received the vehicle in which Torin1 was dissolved (NT). At 2 hpi cells were harvested, and cell-associated viral DNA was quantified by real-time PCR analysis. Error bars represent the standard errors of the means from two independent experiments performed in duplicate. […] The level of IE1 was determined at 6 hpi by a Western blot assay using an IE1-specific monoclonal antibody. The image is representative of two independent experiments. […] The expression of a GFP marker gene present in the viral genome was monitored at 24 h after infection in the presence or absence of drug.\nas §1, §2"}}, "data": [{"smiles": "CCC(=O)N1CCN(c2ccc(-n3c(=O)ccc4cnc5ccc(-c6cnc7ccccc7c6)cc5c43)cc2C(F)(F)F)CC1", "note": "[Torin1]", "values": [{"measurement": "reduction of viral DNA accumulation", "setting": "HCMV [1]", "result": 150, "unit": "fold"}, {"measurement": "4EBP1 phosphorylation", "setting": "4EBP1; Akt1/Akt2-null MEFs", "result": "inhibited"}, {"measurement": "4EBP1 phosphorylation", "setting": "4EBP1; Rictor-null MEFs, 48 hpi", "result": "effectively inhibited"}, {"measurement": "phosphorylation of 4EBP1 in MCMV-infected MEFs", "setting": "4EBP1; wild-type MEFs, 48 hpi, rapamycin 20 nM, LY294002 20 μM", "result": "inhibited"}, {"measurement": "phosphorylation of rpS6 in MCMV-infected MEFs", "setting": "rpS6", "result": "completely inhibited"}, {"measurement": "level of cell-associated viral DNA", "setting": "HCMV [2]", "result": "not influenced"}]}]}
